Laboratory results taken from patent US20140357487A1, “PLANTS HAVING INCREASED TOLERANCE TO HERBICIDES” (BASF SE, priority 2011, published 2014).

Experiments:
Sorghum HPPD = assay: HPPD activity assay, Sorghum HPPD; type: biochemical; conditions: normalized on Arabidopsis wild-type HPPD
Method: HPPD produces homogentisic acid and CO2 from 4-hydroxyphenylpyruvate (4-HPP) and O2. The activity assay for HPPD is based on the analysis of homogentisic acid by reversed phase HPLC.
The assay mixture can contain 150 mM potassium phosphate buffer pH 7.0, 50 mM L-ascorbic acid, 1 μM FeSO4 and 7 μg of purified enzyme in a total volume of 1 ml.
Inhibitors are dissolved in DMSO (dimethylsulfoxide) to a concentration of 20 mM or 0.5 mM, respectively. From this stock solution serial five-fold dilutions are prepared in DMSO, which are used in the assay. The respective inhibitor solution accounts for 1% of the assay volume. Thus, final inhibitor concentrations range from 200 μM to 2.5 nM or from 5 μM to 63 pM, respectively. After a preincubation of 30 min the reaction is started by adding 4-HPP to a final concentration of 0.1 mM. The reaction is allowed to proceed for 120 min at room temperature. The reaction is stopped by addition of 100 μl of 4.5 M phosphoric acid.
Activities are normalized by setting the uninhibited enzyme activity to 100%. IC50 values are calculated using non-linear regression.
The assay mixture can contain 150 mM potassium phosphate buffer pH 7.0, 50 mM L-ascorbic acid, 100 μM Catalase (Sigma-Aldrich), 1 μM FeSO4 and 0.2 units of purified HPPD enzyme in a total volume of 505 μl. […]
Inhibitors are dissolved in DMSO (dimethylsulfoxide) to a concentration of 0.5 mM. […] IC50 values are calculated using non-linear regression.
Using methods which are described in the above examples or well known in the art, purified, recombinant wildtype HPPD enzymes are characterized with respect to their kinetic properties and sensitivity towards HPPD inhibiting herbicides. Apparent michaelis constants (Km) and maximal reaction velocities (Vmax) are calculated by non-linear regression with the software GraphPad Prism 5 (GraphPad Software, La Jolla, USA) using a substrate inhibition model. […] Weighted means (by standard error) of Km and […] values are calculated from at least three independent experiments. […]

[1] = test system: transgenic soybean plants, Arabidopsis I393L L385V, event SDS-9908; assay: Greenhouse testing of transgenic soybean plants, Arabidopsis I393L L385V; type: in vivo, Glycine max; conditions: soybean SDS-9908, 5 days after herbicide treatment, average of 8 T1
Excerpt: (§1) Various methods for the production of stably transformed plants are well known in the art. Coumarone-derivative herbicide tolerant soybean (Glycine max) or corn (Zea mays) plants can be produced by a method described by Olhoft et al. (US patent 2009/0049567). Briefly, HPPD or HST encoding polynucleotides are cloned into a binary vector using standard cloning techniques as described by Sambrook et al. (Molecular cloning (2001) Cold Spring Harbor Laboratory Press). The final vector construct contains an HPPD or HST encoding sequence flanked by a promoter sequence (e.g. the ubiquitin promoter (PcUbi) sequence) and a terminator sequence (e.g. the nopaline synthase terminator (NOS) sequence) and a resistance marker gene cassette (e.g. AHAS) (FIG. 2). Optionally, the HPPD or HST gene can provide the means of selection. Agrobacterium-mediated transformation is used to introduce the DNA into soybean's axillary meristem cells at the primary node of seedling explants. After inoculation and co-cultivation with Agrobacteria, the explants are transferred to shoot induction medium without selection for one week. The explants are subsequently transferred to shoot induction medium with 1-3 μM imazapyr (Arsenal) for 3 weeks to select for transformed cells. Explants with healthy callus/shoot pads at the primary node are then transferred to shoot elongation medium containing 1-3 μM imazapyr until a shoot elongates or the explant dies. After regeneration, transformants are transplanted to soil in small pots, placed in growth chambers (16 hr day/8 hr night; 25° C. day/23° C. night; 65% relative humidity; 130-150 mE m−2 s−1) and subsequently tested for the presence of the T-DNA via Taqman analysis. After a few weeks, healthy, transgenic positive, single copy events are transplanted to larger pots and allowed to grow in the growth chamber. Transformation of corn plants is done by a method described by McElver and Singh (WO 2008/124495). Plant transformation vector constructs containing HPPD or HST sequences are introduced into maize immature embryos via Agrobacterium-mediated transformation. Transformed cells are selected in selection media supplemented with 0.5-1.5 μM imazethapyr for 3-4 weeks. Transgenic plantlets are regenerated on plant regeneration media and rooted afterwards. Transgenic plantlets are subjected to TaqMan analysis for the presence of the transgene before being transplanted to potting mixture and grown to maturity in greenhouse. Arabidopsis thaliana is transformed with HPPD or HST sequences by floral dip method as described by McElver and Singh (WO 2008/124495). Transgenic Arabidopsis plants are subjected to Tag Man analysis for analysis of the number of integration loci. Transformation of Oryza sativa (rice) are done by protoplast transformation as described by Peng et al. (U.S. Pat. No. 6,653,529)
(§2) Transgenic plants expressing heterologous HPPD or HST enzymes are tested for tolerance against coumarone-derivative herbicides in greenhouse experiments.
(§3) For post emergence treatment, the test plants are first grown to a height of 3 to 15 cm, depending on the plant habit, and only then treated with the herbicides. For this purpose, the test plants are either sown directly and grown in the same containers, or they are first grown separately and transplanted into the test containers a few days prior to treatment.
(§4) Depending on the species, the plants are kept at 10-25° C. or 20-35° C. The test period extends over 3 weeks. During this time, the plants are tended and their response to the individual treatments is evaluated. […] Tolerance to coumarone-derivative herbicides can also be assessed in Arabidopsis. In this case transgenic Arabidopsis thaliana plants are assayed for improved tolerance to coumarone-derivative herbicides in 48-well plates. Seeds are surface sterilized by stirring for 5 min in ethanol+water (70+30 by volume), rinsing one time with ethanol+water (70+30 by volume) and two times with a sterile, deionized water. […]

[2] = test system: transgenic soybean plants, Arabidopsis M335Y, event SDS-9866; assay: Greenhouse testing of transgenic soybean plants, Arabidopsis M335Y; type: in vivo, Glycine max; conditions: soybean SDS-9866, 5 days after herbicide treatment, average of 8 T1
Excerpt: as §1, §2, §3, §4

SMILES | Normalized tolerance index TI (Sorghum HPPD) | Injury evaluation, scale of 1-100, bleaching phenotype ([1]; 6.25 g/ha) | Injury evaluation, scale of 1-100, bleaching phenotype ([1]; 25 g/ha) | Injury evaluation, scale of 1-100, bleaching phenotype ([1]; 100 g/ha) | Injury evaluation, scale of 1-100, bleaching phenotype ([2]; 6.25 g/ha) | Injury evaluation, scale of 1-100, bleaching phenotype ([2]; 25 g/ha) | Injury evaluation, scale of 1-100, bleaching phenotype ([2]; 100 g/ha) | Injury evaluation, scale of 1-100, bleaching phenotype ([1]; 2.5 g/ha) | Injury evaluation, scale of 1-100, bleaching phenotype ([1]; 10 g/ha) | Injury evaluation, scale of 1-100, bleaching phenotype ([1]; 40 g/ha) | Injury evaluation, scale of 1-100, bleaching phenotype ([2]; 2.5 g/ha) | Injury evaluation, scale of 1-100, bleaching phenotype ([2]; 10 g/ha) | Injury evaluation, scale of 1-100, bleaching phenotype ([2]; 40 g/ha)
CC1=NOC(c2c(Cl)ccc(C3=C(O)c4ncccc4C(C)(C)S3(=O)=O)c2Cl)C1 (centres unmarked) [Inhibitor 1, 7-[2,4-dichloro-3-(3-methyl-4,5-dihydroisoxazol-5-yl)phenyl]-5,5-dimethyl-6,6-dioxo-thiopyrano[4,3-b]pyridin-8-ol] | 2.1 |  |  |  |  |  |  |  |  |  |  |  | 
Cc1c(C(=O)c2cnn(C)c2O)ccc(S(C)(=O)=O)c1C1=NOCC1 [Topramezone, reference compound] |  | 2 | 7 | 14 | 4 | 8 | 23 |  |  |  |  |  | 
CC1(C)c2cccnc2C(O)=C(c2ccc(Cl)nc2Cl)S1(=O)=O [Inhibitor 2, 7-(2,6-dichloro-3-pyridyl)-5,5-dimethyl-6,6-dioxo-thiopyrano[4,3-b]pyridin-8-ol] | 1.2 |  |  |  |  |  |  | 3 | 3 | 5 | 4 | 5 | 10
